{"source": "ChEMBL document CHEMBL3593212", "about": "“Synthesis and evaluation of novel 1H-pyrrolo[2,3-b]pyridine-5-carboxamide derivatives as potent and orally efficacious immunomodulators targeting JAK3” (Bioorg Med Chem, 2015)", "key": {"[1]": {"biological_target": "Dual specificity mitogen-activated protein kinase kinase 1 (Homo sapiens, UniProt Q02750)", "sequence (Q02750 whole entry)": "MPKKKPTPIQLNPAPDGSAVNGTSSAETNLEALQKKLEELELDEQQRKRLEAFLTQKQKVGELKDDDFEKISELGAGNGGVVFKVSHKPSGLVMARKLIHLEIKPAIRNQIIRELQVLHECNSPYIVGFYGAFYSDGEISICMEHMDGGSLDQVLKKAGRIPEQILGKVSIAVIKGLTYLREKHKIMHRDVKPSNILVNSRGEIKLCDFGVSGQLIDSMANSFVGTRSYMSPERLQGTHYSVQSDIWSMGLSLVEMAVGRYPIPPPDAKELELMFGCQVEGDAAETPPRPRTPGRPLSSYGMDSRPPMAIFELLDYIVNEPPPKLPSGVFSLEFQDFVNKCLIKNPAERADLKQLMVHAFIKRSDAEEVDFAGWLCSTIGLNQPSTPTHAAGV", "test": "Inhibition of MEK1 (unknown origin)"}, "[2]": {"biological_target": "Tyrosine-protein kinase SYK (Homo sapiens, UniProt P43405)", "test": "Inhibition of SYK (unknown origin)"}, "[3]": {"biological_target": "RAF proto-oncogene serine/threonine-protein kinase (Homo sapiens, UniProt P04049)", "sequence (P04049 whole entry)": "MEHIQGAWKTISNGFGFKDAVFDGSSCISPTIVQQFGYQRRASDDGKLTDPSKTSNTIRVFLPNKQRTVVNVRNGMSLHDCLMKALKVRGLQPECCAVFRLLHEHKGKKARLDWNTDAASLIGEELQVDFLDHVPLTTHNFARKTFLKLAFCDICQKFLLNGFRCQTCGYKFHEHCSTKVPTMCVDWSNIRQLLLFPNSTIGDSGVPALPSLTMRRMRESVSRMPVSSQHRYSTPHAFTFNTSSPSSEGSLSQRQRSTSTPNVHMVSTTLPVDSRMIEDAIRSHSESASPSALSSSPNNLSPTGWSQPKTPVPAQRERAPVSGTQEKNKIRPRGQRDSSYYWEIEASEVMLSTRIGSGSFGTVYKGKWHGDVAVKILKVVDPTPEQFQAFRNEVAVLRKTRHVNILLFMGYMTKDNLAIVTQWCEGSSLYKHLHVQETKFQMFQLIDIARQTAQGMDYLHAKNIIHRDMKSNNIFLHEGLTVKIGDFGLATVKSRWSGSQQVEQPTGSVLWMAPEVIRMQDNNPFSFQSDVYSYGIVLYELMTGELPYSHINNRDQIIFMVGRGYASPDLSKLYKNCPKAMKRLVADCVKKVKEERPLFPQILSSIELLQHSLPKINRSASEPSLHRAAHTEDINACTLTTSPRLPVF", "test": "Inhibition of RAF1 (unknown origin)"}, "[4]": {"biological_target": "Insulin-like growth factor 1 receptor (Homo sapiens, UniProt P08069)", "test": "Inhibition of IGF1R (unknown origin)"}, "[5]": {"test": "Cmax in Sprague-Dawley rat at 3 mg/kg, po by LC/MS/MS method", "assay_type": "ADME, organism-based", "set-up": "dose 3 mg/kg, route oral", "conditions": "in vivo"}, "[6]": {"biological_target": "Receptor tyrosine-protein kinase erbB-2 (Homo sapiens, UniProt P04626)", "sequence (P04626 whole entry)": "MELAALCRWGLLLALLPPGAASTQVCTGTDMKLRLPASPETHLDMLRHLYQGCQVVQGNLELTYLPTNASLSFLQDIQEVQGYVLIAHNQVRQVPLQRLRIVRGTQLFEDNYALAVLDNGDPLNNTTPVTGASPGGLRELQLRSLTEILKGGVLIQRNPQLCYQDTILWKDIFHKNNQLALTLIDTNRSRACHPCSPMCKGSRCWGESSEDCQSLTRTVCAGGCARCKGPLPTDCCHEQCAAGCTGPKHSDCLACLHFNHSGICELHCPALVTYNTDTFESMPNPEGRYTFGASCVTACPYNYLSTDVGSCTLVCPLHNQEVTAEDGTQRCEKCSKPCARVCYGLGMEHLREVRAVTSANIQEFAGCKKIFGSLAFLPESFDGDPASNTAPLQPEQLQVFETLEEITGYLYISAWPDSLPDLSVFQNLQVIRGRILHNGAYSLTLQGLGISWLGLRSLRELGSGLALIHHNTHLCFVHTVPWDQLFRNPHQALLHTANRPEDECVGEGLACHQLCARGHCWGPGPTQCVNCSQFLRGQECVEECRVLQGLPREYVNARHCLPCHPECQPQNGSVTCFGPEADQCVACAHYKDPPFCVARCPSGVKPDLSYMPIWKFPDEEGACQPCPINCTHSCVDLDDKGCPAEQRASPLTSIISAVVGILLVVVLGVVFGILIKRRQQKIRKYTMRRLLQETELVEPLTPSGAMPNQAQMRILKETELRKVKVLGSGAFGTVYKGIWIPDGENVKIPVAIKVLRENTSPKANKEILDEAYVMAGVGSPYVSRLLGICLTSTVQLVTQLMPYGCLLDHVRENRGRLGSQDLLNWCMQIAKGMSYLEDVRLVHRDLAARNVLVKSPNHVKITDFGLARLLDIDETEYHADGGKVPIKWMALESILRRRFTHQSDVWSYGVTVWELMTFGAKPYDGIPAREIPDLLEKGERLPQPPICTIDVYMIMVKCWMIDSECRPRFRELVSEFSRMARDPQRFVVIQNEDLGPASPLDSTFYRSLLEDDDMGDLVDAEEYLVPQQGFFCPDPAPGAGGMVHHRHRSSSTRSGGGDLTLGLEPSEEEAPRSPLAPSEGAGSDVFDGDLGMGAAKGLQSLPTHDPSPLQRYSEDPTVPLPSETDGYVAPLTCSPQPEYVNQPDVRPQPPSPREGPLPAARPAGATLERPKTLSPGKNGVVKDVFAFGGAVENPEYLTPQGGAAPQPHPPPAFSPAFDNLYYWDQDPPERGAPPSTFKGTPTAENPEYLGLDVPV", "test": "Inhibition of HER2 (unknown origin)"}, "[7]": {"biological_target": "Bone morphogenetic protein receptor type-1A (Homo sapiens, UniProt P36894)", "sequence (P36894 whole entry)": "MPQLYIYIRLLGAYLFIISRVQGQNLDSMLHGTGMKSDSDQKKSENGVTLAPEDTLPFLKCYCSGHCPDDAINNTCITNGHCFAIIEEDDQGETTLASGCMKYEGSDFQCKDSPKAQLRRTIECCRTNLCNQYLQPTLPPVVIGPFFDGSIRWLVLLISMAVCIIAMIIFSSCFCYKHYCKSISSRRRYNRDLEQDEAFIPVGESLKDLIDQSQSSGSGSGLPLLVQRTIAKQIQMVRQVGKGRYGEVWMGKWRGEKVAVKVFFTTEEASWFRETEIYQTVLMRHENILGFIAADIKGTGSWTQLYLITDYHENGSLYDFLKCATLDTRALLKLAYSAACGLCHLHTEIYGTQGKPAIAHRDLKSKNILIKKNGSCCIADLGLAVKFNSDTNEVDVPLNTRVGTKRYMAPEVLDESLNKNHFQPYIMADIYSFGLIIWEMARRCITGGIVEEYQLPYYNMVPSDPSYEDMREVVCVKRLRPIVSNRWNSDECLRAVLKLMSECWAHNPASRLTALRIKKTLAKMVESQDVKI", "test": "Inhibition of BMPR1A (unknown origin)"}, "[8]": {"test": "Total clearance in beagle dog at 1 mg/kg, iv by LC/MS/MS method", "assay_type": "ADME, organism-based, Canis lupus familiaris", "conditions": "in vivo"}, "[9]": {"test": "Half life in cynomolgus monkey at 1 mg/kg, iv by LC/MS/MS method", "assay_type": "ADME, organism-based, Macaca fascicularis", "conditions": "in vivo"}, "[10]": {"test": "Inhibition of JAK1/JAK3 in Lewis rat splenocytes assessed as reduction in IL2-stimulated T-cell proliferation incubated for 3 days by alamar blue dye based fluorescence assay", "conditions": "72 h"}, "[11]": {"test": "Oral bioavailability in Sprague-Dawley rat at 3 mg/kg by LC/MS/MS method", "assay_type": "ADME, organism-based", "conditions": "in vivo"}, "[12]": {"biological_target": "Tyrosine-protein kinase Tec (Homo sapiens, UniProt P42680)", "sequence (P42680 whole entry)": "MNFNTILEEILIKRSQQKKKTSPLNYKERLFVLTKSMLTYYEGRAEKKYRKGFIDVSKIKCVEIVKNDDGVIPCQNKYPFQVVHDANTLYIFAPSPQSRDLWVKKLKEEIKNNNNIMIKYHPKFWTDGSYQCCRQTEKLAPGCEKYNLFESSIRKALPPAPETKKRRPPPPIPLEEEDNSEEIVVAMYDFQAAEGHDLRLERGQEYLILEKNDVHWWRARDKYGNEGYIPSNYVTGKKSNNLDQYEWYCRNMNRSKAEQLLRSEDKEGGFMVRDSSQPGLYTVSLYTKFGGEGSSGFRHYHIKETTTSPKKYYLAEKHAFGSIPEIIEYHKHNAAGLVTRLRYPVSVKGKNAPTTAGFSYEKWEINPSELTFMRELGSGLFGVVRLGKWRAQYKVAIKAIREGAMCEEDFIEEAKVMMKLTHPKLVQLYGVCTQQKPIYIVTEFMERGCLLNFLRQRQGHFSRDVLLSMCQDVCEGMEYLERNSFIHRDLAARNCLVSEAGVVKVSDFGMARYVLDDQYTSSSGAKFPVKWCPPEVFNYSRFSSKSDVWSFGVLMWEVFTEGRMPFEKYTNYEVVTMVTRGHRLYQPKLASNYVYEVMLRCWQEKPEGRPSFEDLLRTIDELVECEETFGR", "test": "Inhibition of TEC (unknown origin)"}, "[13]": {"test": "Half life in beagle dog at 1 mg/kg, iv by LC/MS/MS method", "assay_type": "ADME, organism-based, Canis lupus familiaris", "conditions": "in vivo"}, "[14]": {"test": "AUC (0 to 24 hrs) in cynomolgus monkey at 1 mg/kg, iv by LC/MS/MS method", "assay_type": "ADME, organism-based, Macaca fascicularis", "set-up": "time < 24 hr, dose 1 mg/kg, route intravenous", "conditions": "in vivo"}, "Angiopoietin-1 receptor": {"biological_target": "Angiopoietin-1 receptor (Homo sapiens, UniProt Q02763)", "test": "Inhibition of TIE2 (unknown origin)"}, "[15]": {"test": "Volume of distribution at steady state in beagle dog at 1 mg/kg, iv by LC/MS/MS method", "assay_type": "ADME, organism-based, Canis lupus familiaris", "conditions": "in vivo, read-out: Vdss"}, "[16]": {"biological_target": "Protein kinase C alpha type (Homo sapiens, UniProt P17252)", "test": "Inhibition of PKCalpha (unknown origin)"}, "[17]": {"test": "Volume of distribution at steady state in Sprague-Dawley rat at 1 mg/kg, iv by LC/MS/MS method", "assay_type": "ADME, organism-based", "conditions": "in vivo, read-out: Vdss"}, "[18]": {"biological_target": "Tyrosine-protein kinase ZAP-70 (Homo sapiens, UniProt P43403)", "sequence (P43403 whole entry)": "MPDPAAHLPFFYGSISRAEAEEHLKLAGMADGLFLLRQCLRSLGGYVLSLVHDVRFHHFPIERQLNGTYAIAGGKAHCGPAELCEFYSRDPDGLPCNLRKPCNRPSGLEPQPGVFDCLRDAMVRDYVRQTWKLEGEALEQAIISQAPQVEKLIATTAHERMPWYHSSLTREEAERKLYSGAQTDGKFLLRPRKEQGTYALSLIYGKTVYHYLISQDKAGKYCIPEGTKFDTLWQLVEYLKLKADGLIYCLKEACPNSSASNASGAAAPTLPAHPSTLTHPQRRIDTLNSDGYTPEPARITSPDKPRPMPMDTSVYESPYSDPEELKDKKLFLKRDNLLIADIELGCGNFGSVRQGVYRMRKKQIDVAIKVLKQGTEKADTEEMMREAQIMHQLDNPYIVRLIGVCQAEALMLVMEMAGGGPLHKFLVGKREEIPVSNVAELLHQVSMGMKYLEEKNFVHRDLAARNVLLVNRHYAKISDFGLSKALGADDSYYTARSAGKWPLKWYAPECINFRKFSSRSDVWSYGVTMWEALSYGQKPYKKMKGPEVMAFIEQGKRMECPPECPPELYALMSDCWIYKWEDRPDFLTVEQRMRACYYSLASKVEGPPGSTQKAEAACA", "test": "Inhibition of ZAP70 (unknown origin)"}}}
{"smiles": "N#Cc1ccc(N2CC[C@@H](Nc3c(C(N)=O)cnc4[nH]ccc34)[C@@H](F)C2)nc1", "values": [{"measurement": "IC50", "setting": "[1]", "value": "> 1", "unit": "µM"}, {"measurement": "IC50", "setting": "[2]", "value": "> 1", "unit": "µM"}, {"measurement": "IC50", "setting": "[3]", "value": "> 1", "unit": "µM"}, {"measurement": "IC50", "setting": "[4]", "value": "> 1", "unit": "µM"}, {"measurement": "Cmax", "setting": "[5]", "value": 633, "unit": "ng/mL"}, {"measurement": "IC50", "setting": "[6]", "value": "> 1", "unit": "µM"}, {"measurement": "IC50", "setting": "[7]", "value": "> 1", "unit": "µM"}, {"measurement": "clearance", "setting": "[8]", "value": 3, "unit": "mL/min/kg"}, {"measurement": "half-life", "setting": "[9]", "value": 5.4, "unit": "h"}, {"measurement": "IC50", "setting": "[10]", "value": 0.011, "unit": "µM"}, {"measurement": "bioavailability", "setting": "[11]", "value": 70.7, "unit": "%"}, {"measurement": "IC50", "setting": "[12]", "value": "> 1", "unit": "µM"}, {"measurement": "half-life", "setting": "[13]", "value": 4.2, "unit": "h"}, {"measurement": "AUC(0-t) at 24 h", "setting": "[14]", "value": 4490, "unit": "ng·h/mL"}, {"measurement": "IC50", "setting": "Angiopoietin-1 receptor", "value": "> 1", "unit": "µM"}, {"measurement": "Vd", "setting": "[15]", "value": 1, "unit": "L/kg"}, {"measurement": "IC50", "setting": "[16]", "value": 0.13, "unit": "µM"}, {"measurement": "Vd", "setting": "[17]", "value": 1.1, "unit": "L/kg"}, {"measurement": "IC50", "setting": "[18]", "value": "> 1", "unit": "µM"}]}
